{"source": "patent US20160022684A1", "about": "“BET INHIBITOR AND BRUTON'S TYROSINE KINASE INHIBITOR COMBINATIONS” (Pharmacyclics LLC, priority 2014, published 2016)", "format_in_all_cases": "cell-based", "key": {"TMD8": {"test_system": "TMD8", "test": "Combined drug treatment cell viability (CellTiter-Glo), ibrutinib with BET inhibitors, TMD8", "conditions": "JQ1 20 nM, 3 days", "description": "(§1) The DLBCL cell lines used during the experiments included TMD8, OCI-LY3, OCI-LY10, U-2932 and SU-DHL-2. DLBCL cells at either 1×10^4 cells or 2×10^4 cells were plated onto each well of a 96-W plate (Table 1). […] The 96-W plate was then incubated for 3 days. Cell viability was examined using a CellTiter-Glo assay. A 40 μL of CellTiter-Glo reagent was added directly into each well of the 96-W plate. The plate was then shaken on a Shaker ([…]) at speed 5 for 10-20 min at room temperature. Next, about 100 μL of the mixed medium was transferred to a white, non-transparent, flat bottom 96-W plate for assaying. […] Measurements were taken at room temperature. CellTiter-Glow reagents were thawed prior to use. Cells pre-plated onto a second 96-W plate and incubated at room temperature for 30 minutes were used for calibration purposes. […] CI is a quantitative description of the interaction property of the combination of two drugs."}, "OCI-LY10": {"test_system": "OCI-LY10", "test": "Combined drug treatment cell viability (CellTiter-Glo), ibrutinib with BET inhibitors, OCI-LY10", "conditions": "OCI-LY-10, JQ1 1 uM, 3 days", "description": "as §1"}, "OCI-LY3": {"test_system": "OCI-LY3", "test": "Combined drug treatment cell viability (CellTiter-Glo), ibrutinib with BET inhibitors, OCI-LY3", "conditions": "OCI-LY-3, JQ1 1 uM, 3 days", "description": "as §1"}, "U-2932": {"test_system": "U-2932", "test": "Combined drug treatment cell viability (CellTiter-Glo), ibrutinib with BET inhibitors, U-2932", "conditions": "U2932, JQ1 20 nM, 3 days", "description": "as §1"}, "SU-DHL-2": {"test_system": "SU-DHL-2", "test": "Combined drug treatment cell viability (CellTiter-Glo), ibrutinib with BET inhibitors, SU-DHL-2", "conditions": "JQ1 100 nM, 3 days", "description": "as §1"}, "[1]": {"conditions": "ibrutinib 0 nM (BET inhibitor alone): I-BET151 5 uM, OTX015 1 uM"}, "[2]": {"conditions": "ibrutinib 0.0256 nM with I-BET151 5 uM, OTX015 1 uM or medium alone (row)"}, "[3]": {"conditions": "ibrutinib 0.64 nM with I-BET151 5 uM, OTX015 1 uM or medium alone (row)"}, "[4]": {"conditions": "ibrutinib 3.2 nM with I-BET151 5 uM, OTX015 1 uM or medium alone (row)"}, "[5]": {"conditions": "ibrutinib 16 nM with I-BET151 5 uM, OTX015 1 uM or medium alone (row)"}, "[6]": {"conditions": "ibrutinib 80 nM with I-BET151 5 uM, OTX015 1 uM or medium alone (row)"}, "[7]": {"conditions": "ibrutinib 400 nM with I-BET151 5 uM, OTX015 1 uM or medium alone (row)"}, "[8]": {"conditions": "ibrutinib 2000 nM with I-BET151 5 uM, OTX015 1 uM or medium alone (row)"}, "[9]": {"conditions": "ibrutinib 10000 nM with I-BET151 5 uM, OTX015 1 uM or medium alone (row)"}, "[10]": {"conditions": "ibrutinib […] with I-BET151 5 uM, OTX015 1 uM or medium alone (row)"}}, "data": [{"smiles": "COc1cc2c(cc1-c1c(C)noc1C)ncc1[nH]c(=O)n([C@H](C)c3ccccn3)c12", "note": "[I-BET151]", "values": [{"measurement": "luminescent signals", "setting": "TMD8; ibrutinib 0 nM (BET inhibitor alone): I-BET151 200 nM, OTX015 100 nM", "result": 53526.63}, {"measurement": "luminescent signals", "setting": "TMD8; ibrutinib 0.0256 nM with I-BET151 200 nM, OTX015 100 nM or medium alone (row)", "result": 14177.65}, {"measurement": "luminescent signals", "setting": "TMD8; ibrutinib 0.64 nM with I-BET151 200 nM, OTX015 100 nM or medium alone (row)", "result": 12722.72}, {"measurement": "luminescent signals", "setting": "TMD8; ibrutinib 3.2 nM with I-BET151 200 nM, OTX015 100 nM or medium alone (row)", "result": 11655.25}, {"measurement": "luminescent signals", "setting": "TMD8; ibrutinib 16 nM with I-BET151 200 nM, OTX015 100 nM or medium alone (row)", "result": 11328.42}, {"measurement": "luminescent signals", "setting": "TMD8; ibrutinib 80 nM with I-BET151 200 nM, OTX015 100 nM or medium alone (row)", "result": 11526.1}, {"measurement": "luminescent signals", "setting": "TMD8; ibrutinib 400 nM with I-BET151 200 nM, OTX015 100 nM or medium alone (row)", "result": 11191.36}, {"measurement": "luminescent signals", "setting": "TMD8; ibrutinib 2000 nM with I-BET151 200 nM, OTX015 100 nM or medium alone (row)", "result": 11183.45}, {"measurement": "luminescent signals", "setting": "TMD8; ibrutinib 10000 nM with I-BET151 200 nM, OTX015 100 nM or medium alone (row)", "result": 6995.257}, {"measurement": "luminescent signals", "setting": "TMD8; ibrutinib […] with I-BET151 200 nM, OTX015 100 nM or medium alone (row)", "result": 13950.98}, {"measurement": "luminescent signals", "setting": "OCI-LY10; [1]", "result": 43633.29}, {"measurement": "luminescent signals", "setting": "OCI-LY10; [2]", "result": 41108.85}, {"measurement": "luminescent signals", "setting": "OCI-LY10; [3]", "result": 38594.93}, {"measurement": "luminescent signals", "setting": "OCI-LY10; [4]", "result": 31834.18}, {"measurement": "luminescent signals", "setting": "OCI-LY10; [5]", "result": 23382.58}, {"measurement": "luminescent signals", "setting": "OCI-LY10; [6]", "result": 21683.85}, {"measurement": "luminescent signals", "setting": "OCI-LY10; [7]", "result": 21781.14}, {"measurement": "luminescent signals", "setting": "OCI-LY10; [8]", "result": 22475.36}, {"measurement": "luminescent signals", "setting": "OCI-LY10; [9]", "result": 21920.51}, {"measurement": "luminescent signals", "setting": "OCI-LY10; [10]", "result": 38721.15}, {"measurement": "luminescent signals", "setting": "OCI-LY3; [1]", "result": 14156.55}, {"measurement": "luminescent signals", "setting": "OCI-LY3; [2]", "result": 15418.7}, {"measurement": "luminescent signals", "setting": "OCI-LY3; [3]", "result": 15156.3}, {"measurement": "luminescent signals", "setting": "OCI-LY3; [4]", "result": 13849.54}, {"measurement": "luminescent signals", "setting": "OCI-LY3; [5]", "result": 14914.89}, {"measurement": "luminescent signals", "setting": "OCI-LY3; [6]", "result": 13899.4}, {"measurement": "luminescent signals", "setting": "OCI-LY3; [7]", "result": 15392.46}, {"measurement": "luminescent signals", "setting": "OCI-LY3; [8]", "result": 13151.56}, {"measurement": "luminescent signals", "setting": "OCI-LY3; [9]", "result": 14424.2}, {"measurement": "luminescent signals", "setting": "OCI-LY3; [10]", "result": 12962.63}, {"measurement": "luminescent signals", "setting": "U-2932; ibrutinib 0 nM (BET inhibitor alone): I-BET151 200 nM, OTX015 50 nM (Table 2)", "result": 50367.82}, {"measurement": "luminescent signals", "setting": "U-2932; ibrutinib 0.0256 nM with I-BET151 200 nM, OTX015 50 nM (Table 2) or medium alone (row)", "result": 45116.29}, {"measurement": "luminescent signals", "setting": "U-2932; ibrutinib 0.64 nM with I-BET151 200 nM, OTX015 50 nM (Table 2) or medium alone (row)", "result": 42565.61}, {"measurement": "luminescent signals", "setting": "U-2932; ibrutinib 3.2 nM with I-BET151 200 nM, OTX015 50 nM (Table 2) or medium alone (row)", "result": 43472.05}, {"measurement": "luminescent signals", "setting": "U-2932; ibrutinib 16 nM with I-BET151 200 nM, OTX015 50 nM (Table 2) or medium alone (row)", "result": 43980.61}, {"measurement": "luminescent signals", "setting": "U-2932; ibrutinib 80 nM with I-BET151 200 nM, OTX015 50 nM (Table 2) or medium alone (row)", "result": 43659.14}, {"measurement": "luminescent signals", "setting": "U-2932; ibrutinib 400 nM with I-BET151 200 nM, OTX015 50 nM (Table 2) or medium alone (row)", "result": 44468.08}, {"measurement": "luminescent signals", "setting": "U-2932; ibrutinib 2000 nM with I-BET151 200 nM, OTX015 50 nM (Table 2) or medium alone (row)", "result": 42568.25}, {"measurement": "luminescent signals", "setting": "U-2932; ibrutinib 10000 nM with I-BET151 200 nM, OTX015 50 nM (Table 2) or medium alone (row)", "result": 32015.12}, {"measurement": "luminescent signals", "setting": "U-2932; ibrutinib […] with I-BET151 200 nM, OTX015 50 nM (Table 2) or medium alone (row)", "result": 44167.69}, {"measurement": "luminescent signals", "setting": "SU-DHL-2; ibrutinib 0 nM (BET inhibitor alone): I-BET151 2 uM, OTX015 1 uM (Table 2)", "result": 793.343}, {"measurement": "luminescent signals", "setting": "SU-DHL-2; ibrutinib 0.0256 nM with I-BET151 2 uM, OTX015 1 uM (Table 2) or medium alone (row)", "result": 714.534}, {"measurement": "luminescent signals", "setting": "SU-DHL-2; ibrutinib 0.64 nM with I-BET151 2 uM, OTX015 1 uM (Table 2) or medium alone (row)", "result": 704.027}, {"measurement": "luminescent signals", "setting": "SU-DHL-2; ibrutinib 3.2 nM with I-BET151 2 uM, OTX015 1 uM (Table 2) or medium alone (row)", "result": 809.105}, {"measurement": "luminescent signals", "setting": "SU-DHL-2; ibrutinib 16 nM with I-BET151 2 uM, OTX015 1 uM (Table 2) or medium alone (row)", "result": 843.256}, {"measurement": "luminescent signals", "setting": "SU-DHL-2; ibrutinib 80 nM with I-BET151 2 uM, OTX015 1 uM (Table 2) or medium alone (row)", "result": 922.065}, {"measurement": "luminescent signals", "setting": "SU-DHL-2; ibrutinib 400 nM with I-BET151 2 uM, OTX015 1 uM (Table 2) or medium alone (row)", "result": 798.597}, {"measurement": "luminescent signals", "setting": "SU-DHL-2; ibrutinib 2000 nM with I-BET151 2 uM, OTX015 1 uM (Table 2) or medium alone (row)", "result": 717.161}, {"measurement": "luminescent signals", "setting": "SU-DHL-2; ibrutinib 10000 nM with I-BET151 2 uM, OTX015 1 uM (Table 2) or medium alone (row)", "result": 585.813}, {"measurement": "luminescent signals", "setting": "SU-DHL-2; ibrutinib […] with I-BET151 2 uM, OTX015 1 uM (Table 2) or medium alone (row)", "result": 835.375}]}]}
